Source: ChEMBL document CHEMBL3870338, “Microwave assisted synthesis of novel tetrazole/sulfonamide derivatives based on octahydroacridine, xanthene and chromene skeletons as inhibitors of the carbonic anhydrases isoforms I, II, IV and VII” (Bioorg Med Chem Lett, 2017)
pKi: −log10 of the molar value.

Tests used:
[1] = biological target: Carbonic anhydrase 1 (Homo sapiens, UniProt P00915); assay: Inhibition of human recombinant carbonic anhydrase 1 expressed in Escherichia coli assessed as reduction in CO2 hydration preincubated for 15 mins prior to testing measured for 10 to 100 secs by stopped-flow assay
Chain of Carbonic anhydrase 1 (P00915 whole entry): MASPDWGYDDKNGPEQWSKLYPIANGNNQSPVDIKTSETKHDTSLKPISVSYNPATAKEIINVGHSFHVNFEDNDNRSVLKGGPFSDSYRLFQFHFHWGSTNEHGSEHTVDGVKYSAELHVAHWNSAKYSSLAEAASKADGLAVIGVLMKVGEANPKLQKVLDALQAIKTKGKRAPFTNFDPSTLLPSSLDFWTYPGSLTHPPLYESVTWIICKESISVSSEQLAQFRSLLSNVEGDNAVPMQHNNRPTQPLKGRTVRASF

[2] = biological target: Carbonic anhydrase 2 (Homo sapiens, UniProt P00918); assay: Inhibition of human recombinant carbonic anhydrase 2 expressed in Escherichia coli assessed as reduction in CO2 hydration preincubated for 15 mins prior to testing measured for 10 to 100 secs by stopped-flow assay
[3] = biological target: Carbonic anhydrase 4 (Homo sapiens, UniProt P22748); assay: Inhibition of human recombinant carbonic anhydrase 4 expressed in Escherichia coli assessed as reduction in CO2 hydration preincubated for 15 mins prior to testing measured for 10 to 100 secs by stopped-flow assay
Chain of Carbonic anhydrase 4 (P22748 whole entry): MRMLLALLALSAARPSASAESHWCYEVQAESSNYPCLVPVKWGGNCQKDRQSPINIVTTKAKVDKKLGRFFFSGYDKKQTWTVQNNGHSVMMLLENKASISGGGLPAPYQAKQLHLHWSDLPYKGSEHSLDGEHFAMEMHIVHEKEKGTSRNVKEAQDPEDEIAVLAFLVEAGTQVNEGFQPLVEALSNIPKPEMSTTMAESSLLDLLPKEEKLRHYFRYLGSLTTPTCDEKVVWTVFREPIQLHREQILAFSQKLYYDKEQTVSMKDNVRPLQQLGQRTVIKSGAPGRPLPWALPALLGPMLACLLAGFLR

[4] = biological target: Carbonic anhydrase 7 (Homo sapiens, UniProt P43166); assay: Inhibition of human recombinant carbonic anhydrase 7 expressed in Escherichia coli assessed as reduction in CO2 hydration preincubated for 15 mins prior to testing measured for 10 to 100 secs by stopped-flow assay
Chain of Carbonic anhydrase 7 (P43166 whole entry): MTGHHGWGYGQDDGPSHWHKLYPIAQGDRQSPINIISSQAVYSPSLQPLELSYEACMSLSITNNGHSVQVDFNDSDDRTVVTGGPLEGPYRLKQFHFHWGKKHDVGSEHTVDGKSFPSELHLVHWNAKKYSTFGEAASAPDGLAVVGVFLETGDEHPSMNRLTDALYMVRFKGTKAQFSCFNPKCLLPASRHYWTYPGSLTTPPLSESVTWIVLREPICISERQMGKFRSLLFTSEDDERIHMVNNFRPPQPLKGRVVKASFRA

Measured: pKi

O=Cc1ccc(-c2nnn[nH]2)cc1
< 5.00: [1] | [2] | [3] | [4]

O=Cc1cccc(-c2nnn[nH]2)c1
< 5.00: [1] | [2] | [3] | [4]

CC1(C)CC(=O)C2=C(C1)OC1=C(C(=O)CC(C)(C)C1)C2c1ccc(-c2nnn[nH]2)cc1
< 5.00: [1] | [2] | [3] | [4]

N#CC1=C(N)OC2=C(C(=O)CCC2)C1c1cccc(-c2nnn[nH]2)c1 (stereo not given)
< 5.00: [1] | [2] | [3] | [4]

O=C1CCCC2=C1C(c1cccc(-c3nnn[nH]3)c1)C1=C(CCCC1=O)O2
< 5.00: [1] | [2] | [3] | [4]

CC1(C)CC(=O)C2=C(C1)OC(N)=C(C#N)C2c1ccc(-c2nnn[nH]2)cc1 (stereo not given)
< 5.00: [1] | [2] | [3] | [4]

O=C1CCCC2=C1C(c1ccc(-c3nnn[nH]3)cc1)C1=C(CCCC1=O)O2
< 5.00: [1] | [2] | [3] | [4]

N#CC1=C(N)OC2=C(C(=O)CCC2)C1c1ccc(-c2nnn[nH]2)cc1 (stereo not given)
< 5.00: [1] | [2] | [3] | [4]

CC1(C)CC(=O)C2=C(C1)OC(N)=C(C#N)C2c1cccc(-c2nnn[nH]2)c1 (stereo not given)
< 5.00: [1] | [2] | [3] | [4]

CC1(C)CC(=O)C2=C(C1)OC1=C(C(=O)CC(C)(C)C1)C2c1cccc(-c2nnn[nH]2)c1
< 5.00: [1] | [2] | [3] | [4]
